Measurements taken from ChEMBL document CHEMBL4813920, “Metronidazole-conjugates: A comprehensive review of recent developments towards synthesis and medicinal perspective” (Eur J Med Chem, 2021).
≈ marks a conversion by molar mass, not a printed value.

How the values were obtained:
Giardia intestinalis [1] = experiment: Antigiardial activity against Giardia intestinalis WB ATCC 30957 incubated for 72 hrs by trypan blue staining based assay; type: functional, organism-based; details: Giardia duodenalis, WB ATCC 30957, 72 h
Entamoeba histolytica = experiment: Antiamoebic activity against Entamoeba histolytica HK9 ATCC 30015 incubated for 72 hrs by trypan blue staining based assay; type: functional, organism-based; details: ATCC 30015, 72 h
Giardia intestinalis [2] = experiment: Antigiardial activity against Giardia intestinalis MSS:0696:1 incubated for 48 hrs; type: functional, organism-based; details: Giardia duodenalis, MSS:0696:1, 48 h
[3] = Selectivity index, ratio of CC50 for African green monkey Vero cells to IC50 for antigiardial activity against Giardia intestinalis MSS:0696:1; type: toxicity; details: read-out: Ratio CC50/IC50
[4] = Cytotoxicity against African green monkey Vero cells incubated for 48 hrs by sulforhodamine B method; type: cell-based; details: chlorocebus sabaeus
[5] = Selectivity index, ratio of CC50 for African green monkey Vero cells to IC50 for antigiardial activity against Trichomonas vaginalis GT3; type: toxicity; details: read-out: Ratio CC50/IC50
Trichomonas vaginalis = experiment: Anti-trichomonas activity against Trichomonas vaginalis GT3 incubated for 48 hrs; type: functional, organism-based; details: GT3, 48 h
HEK293 = experiment: Cytotoxicity against HEK293 cells after 24 hrs by MTT assay; type: cell-based; details: Homo sapiens, HEK293, 24 h
Escherichia coli [6] = experiment: Antibacterial activity against Escherichia coli ATCC 35218 incubated for 24 hrs by two fold serial dilution method; type: functional
[7] = Acute oral toxicity in mouse assessed as behavioral changes measured once daily for 14 days; details: in vivo, time 14 day
Bacillus spizizenii [8] = experiment: Antibacterial activity against Bacillus subtilis ATCC 6633 incubated for 24 hrs by two fold serial dilution method; type: functional
Pseudomonas aeruginosa [9] = experiment: Antibacterial activity against Pseudomonas aeruginosa ATCC 13525 incubated for 24 hrs by two fold serial dilution method; type: functional
[10] = Acute oral toxicity in mouse assessed as induction of mortality measured once daily for 14 days; details: in vivo, time 14 day
[11] = Acute oral toxicity in mouse assessed as signs of gross toxicity measured once daily for 14 days; details: in vivo, time 14 day
[12] = Inhibition of Escherichia coli N-terminal His-tagged FabH expressed in Escherichia coli BL21(DE3) by liquid scintillation counting method
Staphylococcus aureus [13] = experiment: Antibacterial activity against Staphylococcus aureus ATCC 6538 incubated for 24 hrs by two fold serial dilution method; type: functional
Helicobacter pylori [14] = experiment: Antibacterial activity against Helicobacter pylori ATCC 26695 incubated for 48 hrs by MTT assay; type: functional, organism-based
Helicobacter pylori [15] = experiment: Antibacterial activity against Helicobacter pylori P12 incubated for 48 hrs by MTT assay; type: functional, organism-based
Clostridium perfringens = experiment: Antibacterial activity against Clostridium perfringens ATCC 13124 incubated for 48 hrs under anaerobic condition by MTT assay; type: functional
Bacillus spizizenii [16] = experiment: Antibacterial activity against Bacillus subtilis ATCC 6633 by MH media dilution method; type: functional
Staphylococcus aureus [17] = experiment: Antibacterial activity against Staphylococcus aureus ATCC 6538 by MH media dilution method; type: functional
[18] = Inhibition of Staphylococcus aureus TyrRS using L-tyrosine and tRNA as substrate preincubated for 10 mins followed by substrate addition by liquid scintillation counting method
Pseudomonas aeruginosa [19] = experiment: Antibacterial activity against Pseudomonas aeruginosa ATCC 13525 by MH media dilution method; type: functional
Escherichia coli [20] = experiment: Antibacterial activity against Escherichia coli ATCC 35218 by MH media dilution method; type: functional
HeLa [21] = experiment: Antiproliferative activity against human Hela cells incubated for 24 to 48 hrs by CCK8 assay; type: functional, cell-based
HepG2 [22] = experiment: Antiproliferative activity against human HepG2 cells incubated for 24 to 48 hrs by CCK8 assay; type: functional, cell-based
[23] = biological target: Telomerase reverse transcriptase (Homo sapiens, UniProt O14746); experiment: Inhibition of telomerase in human SGC-7901 cell extract by TRAP assay
A549 [24] = experiment: Antiproliferative activity against human A549 cells incubated for 24 to 48 hrs by CCK8 assay; type: functional, cell-based
U-251 = experiment: Antiproliferative activity against human U-251 cells incubated for 24 to 48 hrs by CCK8 assay; type: functional, cell-based
Leishmania mexicana = experiment: Antileishmanial activity against promastigote form of Leishmania mexicana MHOM/BZ/82/Bel21 measured for 7 days by cell counting method; type: functional; details: MHOM/BZ/82/Bel21, 168 h, time 7 day
Leishmania braziliensis = experiment: Antileishmanial activity against promastigote form of Leishmania braziliensis MHOM/BR/75/M2903 measured for 7 days by cell counting method; type: functional; details: MHOM/BR/75/M2903, 168 h, time 7 day
MCF7 [25] = experiment: cells; details: Homo sapiens, MCF7, 24 h
MDA-MB-231 = experiment: Antiproliferative activity against human MDA-MB-231 cells after 24 hrs by MTT assay; type: functional, cell-based; details: MDA-MB-231, 24 h
HepG2 [26] = experiment: cells; details: Homo sapiens, HepG2, 48 h
MCF7 [27] = experiment: cells; details: Homo sapiens, MCF7, 48 h
HeLa [28] = experiment: cells; details: Homo sapiens, 48 h
A549 [29] = experiment: cells; details: Homo sapiens, A549, 48 h
Carbonic anhydrase 2 = Carbonic anhydrase 2 (Homo sapiens, UniProt P00918); experiment: Inhibition of recombinant human carbonic anhydrase 2 preincubated with enzyme for 15 mins by phenol red dye based stopped flow CO2 hydration assay
Carbonic anhydrase 9 = Carbonic anhydrase 9 (Homo sapiens, UniProt Q16790); experiment: Inhibition of recombinant human carbonic anhydrase 9 preincubated with enzyme for 15 mins by phenol red dye based stopped flow CO2 hydration assay

Chain of Telomerase reverse transcriptase (O14746 whole entry): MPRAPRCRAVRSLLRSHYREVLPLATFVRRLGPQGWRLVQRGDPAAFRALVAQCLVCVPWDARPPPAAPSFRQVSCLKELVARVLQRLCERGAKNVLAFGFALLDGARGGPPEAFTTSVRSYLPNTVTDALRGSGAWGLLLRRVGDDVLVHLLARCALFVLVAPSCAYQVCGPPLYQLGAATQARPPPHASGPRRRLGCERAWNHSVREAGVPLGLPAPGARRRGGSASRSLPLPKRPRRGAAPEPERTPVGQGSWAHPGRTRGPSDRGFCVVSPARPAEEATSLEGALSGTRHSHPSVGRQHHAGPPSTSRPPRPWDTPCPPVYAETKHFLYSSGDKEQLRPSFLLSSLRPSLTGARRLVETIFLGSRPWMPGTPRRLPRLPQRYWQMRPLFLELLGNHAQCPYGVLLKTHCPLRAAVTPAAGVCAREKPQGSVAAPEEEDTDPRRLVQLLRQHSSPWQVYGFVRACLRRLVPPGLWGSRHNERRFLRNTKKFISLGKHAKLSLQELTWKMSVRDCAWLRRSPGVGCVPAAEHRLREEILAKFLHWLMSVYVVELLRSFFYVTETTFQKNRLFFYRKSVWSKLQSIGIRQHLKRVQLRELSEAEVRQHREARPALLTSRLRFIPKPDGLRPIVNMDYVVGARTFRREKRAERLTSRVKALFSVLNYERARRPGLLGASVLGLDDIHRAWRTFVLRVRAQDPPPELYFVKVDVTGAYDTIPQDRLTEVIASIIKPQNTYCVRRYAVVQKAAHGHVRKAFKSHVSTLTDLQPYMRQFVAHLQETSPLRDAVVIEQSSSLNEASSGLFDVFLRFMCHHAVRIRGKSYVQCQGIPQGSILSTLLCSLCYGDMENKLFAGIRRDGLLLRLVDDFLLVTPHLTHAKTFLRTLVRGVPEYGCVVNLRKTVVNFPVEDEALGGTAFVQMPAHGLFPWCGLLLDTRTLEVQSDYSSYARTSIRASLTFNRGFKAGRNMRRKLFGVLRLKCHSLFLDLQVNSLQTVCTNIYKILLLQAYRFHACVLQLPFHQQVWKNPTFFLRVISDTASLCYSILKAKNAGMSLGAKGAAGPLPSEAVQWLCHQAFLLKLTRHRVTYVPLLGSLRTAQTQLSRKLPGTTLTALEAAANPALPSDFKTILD

O=C(O)/C=C/c1ccc([N+](=O)[O-])o1
IC50 (Giardia intestinalis [1]): 67500 nM | IC50 (Entamoeba histolytica): 55700 nM

Cc1ncc([N+](=O)[O-])n1CCOC(=O)Nc1ccc([N+](=O)[O-])cc1
IC50 (Giardia intestinalis [2]): 860 nM | selectivity ratio [3]: > 116 | CC50 at 48 h [4]: > 100000 nM | selectivity ratio [5]: > 10 | IC50 (Trichomonas vaginalis): 9990 nM

Clc1ccc2c(N3CCNCC3)ccnc2c1
IC50 (Giardia intestinalis [1]): 88400 nM | IC50 (Entamoeba histolytica): 94300 nM

Cc1ncc([N+](=O)[O-])n1Cc1cn(CCCCCN2C(=O)C(=O)c3cc(Cl)ccc32)nn1
IC50 (HEK293): 12100 nM

Cc1ncc([N+](=O)[O-])n1CCOC(=O)Nc1ccccc1
IC50 (Giardia intestinalis [2]): 980 nM | selectivity ratio [3]: > 102 | CC50 at 48 h [4]: > 100000 nM | selectivity ratio [5]: 1110 | IC50 (Trichomonas vaginalis): 90 nM

Cc1ncc([N+](=O)[O-])n1CCOC(=O)NC1CCCCC1
IC50 (Giardia intestinalis [2]): 460 nM | selectivity ratio [3]: > 217 | CC50 at 48 h [4]: > 100000 nM | selectivity ratio [5]: 1670 | IC50 (Trichomonas vaginalis): 60 nM

Cc1ncc([N+](=O)[O-])n1CC(C)OC(=O)c1ccc(/C=N/c2ccc(S(=O)(=O)NC(=N)N)cc2)cc1 (centres undefined)
MIC (Escherichia coli [6]): 3.13 µg/mL (≈ 6.09 µM) | LD50 at 336 h [7]: > 5000 mg/kg | MIC (Bacillus spizizenii [8]): 3.13 µg/mL (≈ 6.09 µM) | MIC (Pseudomonas aeruginosa [9]): 25 µg/mL (≈ 48.7 µM) | LD50 at 336 h [10]: > 5000 mg/kg | LD50 at 336 h [11]: > 5000 mg/kg | IC50 [12]: 4930 nM | MIC (Staphylococcus aureus [13]): 12.5 µg/mL (≈ 24.3 µM)

Cc1ccc(C(C)C)cc1OCCn1c([N+](=O)[O-])cnc1C
IC50 (Helicobacter pylori [14]): 4.921 uM/ml | IC50 (Helicobacter pylori [15]): 0.0011 uM/ml | MIC (Clostridium perfringens): 2.7 µM (≈ 0.819 µg/mL)

COc1ccc(-c2cc(C(=O)OCCn3c([N+](=O)[O-])cnc3C)nn2-c2ccc(Cl)cc2)cc1
MIC (Bacillus spizizenii [16]): 7.82 µg/mL (≈ 16.2 µM) | MIC (Staphylococcus aureus [17]): 7.82 µg/mL (≈ 16.2 µM) | IC50 [18]: 1670 nM | MIC (Pseudomonas aeruginosa [19]): 1.96 µg/mL (≈ 4.07 µM) | MIC (Escherichia coli [20]): 3.91 µg/mL (≈ 8.11 µM)

CN(C)c1ccc(/C=C/c2ncc([N+](=O)[O-])n2CCOC(=O)c2nccc3ccccc23)cc1
IC50 (HeLa [21]): 120 nM | IC50 (HepG2 [22]): 140 nM | IC50 [23]: 1920 nM | IC50 (A549 [24]): 170 nM | IC50 (U-251): 430 nM

Cc1ncc([N+](=O)[O-])n1CCSCOC(=O)c1cc(O)c(O)c(O)c1
LC50 (Leishmania mexicana): 1000 nM | LC50 (Leishmania braziliensis): 4000 nM

Cc1ncc([N+](=O)[O-])n1Cc1cn(CCCCN2C(=O)C(=O)c3cc(Cl)ccc32)nn1
IC50 (MCF7 [25]): 54200 nM | IC50 (HEK293): > 100000 nM | IC50 (MDA-MB-231): 26100 nM

COc1cc(/C=C\c2ncc([N+](=O)[O-])n2CCOC(=O)c2c[nH]c3ccccc23)cc(OC)c1OC
IC50 (HepG2 [26]): 40 nM | IC50 (MCF7 [27]): 30 nM | IC50 (HeLa [28]): 15 nM | IC50 (A549 [29]): 35 nM

COc1ccc(-c2cc(C(=O)OCCn3c([N+](=O)[O-])cnc3C)nn2-c2ccccc2)cc1
MIC (Bacillus spizizenii [16]): 3.91 µg/mL (≈ 8.74 µM) | MIC (Staphylococcus aureus [17]): 3.91 µg/mL (≈ 8.74 µM) | IC50 [18]: 920 nM | MIC (Pseudomonas aeruginosa [19]): 0.98 µg/mL (≈ 2.19 µM) | MIC (Escherichia coli [20]): 1.96 µg/mL (≈ 4.38 µM)

O=C(OCCn1c([N+](=O)[O-])cnc1/C=C/c1ccc2ccccc2c1)c1nccc2ccccc12
IC50 (HeLa [21]): 50 nM | IC50 (HepG2 [22]): 100 nM | IC50 [23]: 980 nM | IC50 (A549 [24]): 110 nM | IC50 (U-251): 320 nM

Cc1ncc([N+](=O)[O-])n1CCOc1cccc(/C=N\c2ccc(S(=O)(=O)Nc3nccs3)cc2)c1
IC50 (Carbonic anhydrase 2): 89 nM | IC50 (Carbonic anhydrase 9): 38 nM

Cc1ncc([N+](=O)[O-])n1CCSCOC(=O)c1ccc(O)c(O)c1
LC50 (Leishmania mexicana): 11000 nM | LC50 (Leishmania braziliensis): 13000 nM
